Assay [1] relates to rat aorta rings. Kind of assay: Relaxation of rat aorta rings. The assay is classed as cell-based. The following applies: phenylephrine-contracted rat thoracic aorta rings; cumulative addition; read-out: EC50 (concentration required to evoke a 50% relaxation of the tissue). The protocol: The activity of the compounds as potassium channel openers can also be measured as relaxation of rat aorta rings according to the following procedure:
A section of rat thoracic aorta between the aortic arch and the diaphragm was dissected out and mounted as ring preparations as described by Taylor P. D. et al, Brit J. Pharmacol, 111, 42-48 (1994).
After a 45 min. equilibration period under a tension of 2 g, the preparations were contracted to achieve 80% of the maximum response using the required concentration of phenylephrine. When the phenylephrine response reached a plateau, potential vasodilatory agents were added cumulatively to the bath in small volumes using half log molar increments at 2 min intervals. Relaxation was expressed at the percentage of the contracted tension. The potency of a compound was expressed as the concentration required to evoke a 50% relaxation of the tissue.

Assay [2] deals with rin 5F cells. Put plainly: 86Rb+ efflux from a β-cell line (increased Rb-efflux in rin 5F cells). The following applies: 1 h at room temperature. The class given is cell-based. The protocol:
An opening of KATP -channels will result in an efflux of potassium ions. By measuring the release of ^86 Rb^+ (a radioactive potassium mimic) from e.g. beta-cells pre-incubated in the presence of ^86 Rb^+ the effect of compounds acting as potassium channel openers can be determined. The test expresses the ability of the compounds to regulate the secretion of insulin from the beta-cells.
^86 Rb^+ efflux from a β-cell line
The RIN 5F cell line was grown in RPMI 1640 with Glutamax I, supplemented with 10% fetal calf serum (from GibcoBRL, Scotland, UK) and maintained in an atmosphere of 5% CO2 /95% air at 37° C. The cells were detached with a Trypsin-EDTA solution (from GibcoBRL, Scotland, UK), resuspended in medium, added 1 mCi/ml ^86 Rb^+ and replated into microtiter plates (96 well cluster 3596, sterile, from Costar Corporation,Mass., USA) at a density of 50000 cells/well in 100 μl/well, and grown 24 hours before use in assay.
The plates were washed 4 times with Ringer buffer (150 mM NaCl, 10 mM Hepes, 3.0 mM KCl, 1.0 mM CaCl2, 20 mM Sucrose, pH 7.1). Eighty μl Ringer buffer and 1 μl control- or test compound dissolved in DMSO was added. […] The plates were counted in TopCount (Packard Instrument Company, CT, USA) for 1 min/well at the 32p program. […]

Assay [3] deals with IDDM. The following applies: animal experiments and early non-blinded experiments in humans; cited from earlier work.

In the case of `CC(C)CCN=C(NC#N)Nc1cc(C(F)(F)F)cc(C(F)(F)F)c1` [Example 1, N-Cyano-N'-(3,5-bis(trifluoromethyl)phenyl)-N"-(3-methylbutyl)guanidine], the EC50 came out at 5.6 µM in assay [1] and 2.6 µM in assay [2].

On to `NC(=O)c1cccnc1` [Nicotinamide], for which the “role against IDDM and cytokine/immune mediated beta-cell destruction” value in assay [3] is recorded as “protective role”.

These data come from US6147098A, “Substituted guanidines and diaminonitroethenes, their preparation and use” (Novo Nordisk A/S, priority 1998, dated 2000).
